Like-named read-outs stand apart in the source and are kept apart here.
Key:
[1] = target: T1, PDE4D (Homo sapiens, UniProt Q08499); assay: PDE4 IC50 determination by Scintillation Proximity Assay, PDE4D; format: biochemical
T1 construct: PDE4D: The catalytic domain of human PDE4B from S3 16-V692; His6 (N); thrombin cleavage site (N); made in house; host or cells: E. coli
Method in brief: (§1)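 Scintillation counts reflected [^3H]AMP captured on yttrium silicate SPA beads after enzyme hydrolysed [^3H]cAMP for 30 min at 30°. PDE4B was used at 80 ng/ml and PDE4D at 4 ng/ml. IC50 values came from non-linear regression.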

[2] = tested on: TNFα levels in serum of LPS-challenged rats; assay: Rat inhibition studies: serum TNFα after iv LPS challenge; format: in vivo; settings: read-out: % inhibition r TNFα
Protocol: All studies were done with male rats CD (SD) IGS BR (Crl) (Charles River, France), which were grouped in to 5 animal groups.
At the end of the acclimatization period, the non-fasted rats were weighed, individually identified on the tail with a permanent marker and administered by oral (po) or interperitoneal (ip) route with either vehicle, reference or test compound in a volume of 10 mL/kg adapted to the body weight. The animals were gathered in groups of 5 animals in a polystyrene labeled cage with sawdust covered floors. 2-hours after vehicle, reference or test substance administration, rats received an intravenous (iv) injection of 0.1 mg/kg LPS in a volume of 1 mL/kg of body weight. 2 h after LPS challenge (or as indicated in Tables 3B and 4B), blood samples were collected into tubes without anticoagulant by retro-orbital puncture under gas (isoflurane) anesthesia. Samples were allowed to clot at room temperature for 5 to 10 min then put on ice until there were prepared by centrifugation (6000×g for 3 min at 4° C.) and stored at −20° C. until use. TNFα levels were measured in serum samples in duplicate by ELISA technique according to the manufacturer's procedure (Rat TNFα kit Quantikine M (RTA00, R&D System, France)). Data are reported as percent decrease in observed TNFα levels versus TNFa levels observed for vehicle dosed animal groups.

[3] = target: T2, full-length human PDE4B2 isozyme (Homo sapiens, UniProt Q07343); assay: PDE4 IC50 determination by Scintillation Proximity Assay, PDE4B2; format: biochemical
T2 construct: The full-length human PDE4B2 isozyme; His6 (N); TEV cleavage site (N); made in house; host or cells: baculovirus infected insect cells (unpurified lysate)
Method in brief: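 Unpurified His6-TEV-tagged full-length human PDE4B2 from baculovirus-infected insect cell lysate (2.5 μl of 50% glycerol stock/ml) hydrolysed [3H]cAMP in 50 mM Tris pH 7.5, 8.3 mM MgCl, 1.7 mM EGTA, 0.01% BSA for 30 min at 30°. Stopped with SPA beads in 18 mM ZnSO4; [3H]AMP scintillation counted, IC50 by non-linear regression.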

[4] = target: T3, PDE4B: The catalytic domain of human PDE4B from S152-S528 (Homo sapiens, UniProt Q07343); assay: PDE4 IC50 determination by Scintillation Proximity Assay, PDE4B; format: biochemical
T3 construct: His6 (N); thrombin cleavage site (N); made in house; host or cells: E. coli
Method in brief: as §1

[5] = target: T4, full-length human PDE4D5 isozyme (Homo sapiens, UniProt Q08499); assay: PDE4 IC50 determination by Scintillation Proximity Assay, PDE4D5; format: biochemical
T4 construct: The full-length human PDE4D5 isozyme; His6 (N); TEV cleavage site (N); made in house; host or cells: baculovirus infected insect cells (unpurified lysate)
Method in brief: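 Unpurified His6-tagged full-length human PDE4D5 from baculovirus-infected insect cell lysate, 0.083 μl glycerol stock/ml, hydrolysed [3H]cAMP in Tris pH 7.5/MgCl/EGTA buffer, 30 min at 30°. ZnSO4/SPA beads stop; [3H]AMP counted. Controls: DMSO and roflumilast; 11-point duplicate curves, nonlinear-regression IC50.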

[6] = Table 1B, Formula I compounds, read-out: IC50 PDE4D
[7] = po, 2 h, rat in vivo inhibition assay, 100 mg/kg po, 2 hr challenge delay
[8] = Table 1B, Formula I compounds, read-out: IC50 PDE4B2
[9] = Table 1B, Formula I compounds, read-out: IC50 PDE4B
[10] = Table 1B, Formula I compounds, read-out: IC50 PDE4D5
[11] = po, 1 h, rat, 100 mg/kg po, 1 hr challenge delay
[12] = second part of Table 2B (2-23 to 2-103), column 5, column is PDE4D in first part, read-out: IC 50 vs. indicated assay h TNFα
[13] = po, 1 h, rat in vivo, 100 mg/kg po, 1 hr
[14] = second part of Table 2B (2-23 to 2-103), column 3, column is PDE4B in first part, read-out: IC 50 vs. indicated assay h TNFα
[15] = first part of Table 2B (2-1 to 2-22), read-out: IC 50 vs. indicated assay PDE4D
[16] = po, 2 h, rat in vivo, 100 mg/kg po, 2 hr challenge delay, percent decrease in TNFα versus vehicle
[17] = first part of Table 2B (2-1 to 2-22), read-out: IC 50 vs. indicated assay PDE4B

T3 sequence (Q07343 with tags, fused parts or gaps): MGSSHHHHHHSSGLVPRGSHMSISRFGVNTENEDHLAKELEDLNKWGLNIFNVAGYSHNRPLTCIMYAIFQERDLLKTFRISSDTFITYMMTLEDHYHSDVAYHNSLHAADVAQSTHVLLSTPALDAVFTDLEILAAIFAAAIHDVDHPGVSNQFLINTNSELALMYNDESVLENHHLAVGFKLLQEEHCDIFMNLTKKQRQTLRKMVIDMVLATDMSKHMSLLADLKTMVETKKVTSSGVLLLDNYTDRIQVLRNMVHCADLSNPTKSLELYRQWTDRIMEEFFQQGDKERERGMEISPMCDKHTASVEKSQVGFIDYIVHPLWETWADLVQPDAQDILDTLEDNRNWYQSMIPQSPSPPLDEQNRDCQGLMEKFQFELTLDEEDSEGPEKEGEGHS
T1 sequence (Q08499 380-756): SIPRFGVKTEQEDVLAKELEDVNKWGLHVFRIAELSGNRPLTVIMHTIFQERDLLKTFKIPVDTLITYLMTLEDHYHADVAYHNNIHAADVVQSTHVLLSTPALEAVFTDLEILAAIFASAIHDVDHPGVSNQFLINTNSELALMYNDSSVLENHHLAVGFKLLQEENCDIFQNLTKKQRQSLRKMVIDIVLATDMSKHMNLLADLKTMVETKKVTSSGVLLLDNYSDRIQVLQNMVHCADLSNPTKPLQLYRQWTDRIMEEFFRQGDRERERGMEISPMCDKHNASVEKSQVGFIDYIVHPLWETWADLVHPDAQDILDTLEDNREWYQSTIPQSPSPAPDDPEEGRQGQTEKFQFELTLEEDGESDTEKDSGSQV
T4 sequence (Q08499 1-745 isoform Q08499-6): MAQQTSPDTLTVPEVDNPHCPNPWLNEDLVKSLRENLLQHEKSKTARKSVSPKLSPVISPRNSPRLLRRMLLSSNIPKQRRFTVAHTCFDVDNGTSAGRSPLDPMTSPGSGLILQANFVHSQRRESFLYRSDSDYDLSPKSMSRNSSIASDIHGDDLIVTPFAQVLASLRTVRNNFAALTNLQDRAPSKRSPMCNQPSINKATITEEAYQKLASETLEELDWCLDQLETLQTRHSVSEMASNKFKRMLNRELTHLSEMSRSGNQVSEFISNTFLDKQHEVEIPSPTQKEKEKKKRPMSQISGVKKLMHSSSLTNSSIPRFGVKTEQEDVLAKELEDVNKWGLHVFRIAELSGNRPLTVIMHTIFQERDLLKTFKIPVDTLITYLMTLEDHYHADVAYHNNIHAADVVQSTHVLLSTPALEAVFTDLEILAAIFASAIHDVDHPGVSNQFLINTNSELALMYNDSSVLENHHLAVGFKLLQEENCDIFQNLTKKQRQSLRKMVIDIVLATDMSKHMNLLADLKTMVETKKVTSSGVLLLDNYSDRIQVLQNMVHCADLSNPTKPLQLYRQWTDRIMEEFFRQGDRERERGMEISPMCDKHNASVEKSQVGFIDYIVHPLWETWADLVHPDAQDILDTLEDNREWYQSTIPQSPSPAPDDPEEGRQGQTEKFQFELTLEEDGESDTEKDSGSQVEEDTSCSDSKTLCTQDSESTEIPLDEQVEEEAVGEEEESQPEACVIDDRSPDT
T2 sequence (Q07343 1-564 isoform Q07343-2): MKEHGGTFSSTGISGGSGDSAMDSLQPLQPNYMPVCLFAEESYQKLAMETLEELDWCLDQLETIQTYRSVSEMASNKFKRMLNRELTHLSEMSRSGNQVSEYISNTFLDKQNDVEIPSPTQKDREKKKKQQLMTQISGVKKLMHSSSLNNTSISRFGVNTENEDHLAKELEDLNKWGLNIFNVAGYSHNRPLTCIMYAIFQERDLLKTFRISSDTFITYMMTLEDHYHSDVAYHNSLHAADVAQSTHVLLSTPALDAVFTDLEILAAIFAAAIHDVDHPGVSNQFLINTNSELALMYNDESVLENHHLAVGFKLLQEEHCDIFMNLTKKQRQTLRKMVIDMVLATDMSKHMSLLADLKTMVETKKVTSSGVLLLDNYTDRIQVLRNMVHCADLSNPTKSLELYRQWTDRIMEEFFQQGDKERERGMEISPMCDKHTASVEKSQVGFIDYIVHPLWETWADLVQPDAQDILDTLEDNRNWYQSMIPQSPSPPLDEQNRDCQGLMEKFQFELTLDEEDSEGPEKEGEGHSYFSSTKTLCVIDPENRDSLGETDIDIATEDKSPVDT

Compound	IC50 [1, 6]	inhibition in vivo at 100 mg/kg [2, 7]	IC50 [3, 8]	IC50 [4, 9]	IC50 [5, 10]	further results
N#Cc1c(Nc2ccccc2)sc(C(=O)c2ccc(-c3ccccc3)cc2)c1N [Compound 1-34, 4-Amino-5-(biphenyl-4-carbonyl)-2-phenylamino-thiophene-3-carbontrile]	< 10 µM	> 20%	< 10 µM	< 10 µM	< 10 µM	–
COc1ccccc1Nc1sc(C(=O)c2ccccc2)c(N)c1C#N [Compound 1-30, 4-Amino-5-benzoyl-2-(2-methoxy-phenylamino)-thiophene-3-carbonitrile]	< 10 µM	> 20%	< 10 µM	< 10 µM	< 10 µM	–
COc1ccc(C(=O)c2sc(Nc3ccc(F)cc3)c(C#N)c2N)cc1 [Compound 1-37, 4-Amino-2-(4-fluoro-phenylamino)-5-(4-methoxy-benzoyl)-thiophene-3-carbonitrile]	< 10 µM	–	< 10 µM	< 10 µM	< 10 µM	inhibition in vivo at 100 mg/kg [2, 11]: < 20%
CCOC(=O)c1ccc(Nc2nc(N)c(C(=O)c3ccc(OC)cc3)s2)cc1 [Compound 2-38, 4-[4-Amino-5-(4-methoxy-benzoyl)-thiazol-2-ylamino]-benzoic acid ethyl ester]	–	–	–	–	–	IC50 [1, 12]: < 10 µM; inhibition in vivo at 100 mg/kg [2, 13]: < 20%; IC50 [4, 14]: < 10 µM
CCOC(=O)c1cc(C(=O)c2sc(Nc3ccccc3F)nc2N)on1 [Compound 2-1, 5-[4-Amino-2-(2-fluoro-phenylamino)-thiazole-5-carbonyl]-isoxazole-3-carboxylic acid ethyl ester]	–	–	–	–	–	IC50 [1, 15]: < 10 µM; inhibition in vivo at 100 mg/kg [2, 16]: < 20%; IC50 [4, 17]: < 10 µM
Cc1ccc(C(=O)c2sc(Nc3ccccc3)c(C#N)c2N)cc1 [Compound 1-29, 4-Amino-5-(4-methyl-benzoyl)-2-phenylamino-thiophene-3-carbonitrile]	< 10 µM	–	< 10 µM	< 10 µM	< 10 µM	inhibition in vivo at 100 mg/kg ([2]; ip, 1 h, rat, 100 mg/kg, ip, 1 hr challenge delay): > 20%
N#Cc1c(NC2CCCC2)sc(C(=O)c2cc(-c3ccc(Cl)cc3)no2)c1N [Compound 1-173, 4-Amino-5-[3-(4-chloro-phenyl)-isoxazole-5-carbonyl]-2-cyclopentylamino-thiophene-3-carbonitrile]	> 10 µM	< 20%	< 10 µM	< 10 µM	> 10 µM	–
Nc1nc(Nc2c(Cl)cccc2Cl)sc1C(=O)C1CCCC1 [Compound 2-93, [4-Amino-2-(2,6-dichloro-phenylamino)-thiazol-5-yl]-cyclopentyl-methanone]	–	–	–	–	–	IC50 [1, 12]: < 10 µM; inhibition in vivo at 100 mg/kg [2, 13]: < 20%; IC50 [4, 14]: < 10 µM
CSc1cccc(Nc2sc(C(=O)c3cc(-c4ccccc4)no3)c(N)c2C#N)c1 [Compound 1-181, 4-Amino-2-(3-methylsulfanyl-phenylamino)-5-(3-phenyl-isoxazole-5-carbonyl)-thiophene-3-carbonitrile]	< 10 µM	< 20%	< 10 µM	< 10 µM	< 10 µM	–
N#Cc1c(NC2CCCC2)sc(C(=O)c2ccccc2)c1N [Compound 1-171, 4-Amino-5-benzoyl-2-cyclopentylamino-thiophene-3-carbonitrile]	< 10 µM	< 20%	< 10 µM	< 10 µM	< 10 µM	–
N#Cc1c(Nc2ccc(OC(F)F)cc2)sc(C(=O)c2ccccc2)c1N [Compound 1-166, 4-Amino-5-benzoyl-2-(4-difluoromethoxy-phenylamino)-thiophene-3-carbonitrile]	< 10 µM	< 20%	–	< 10 µM	–	–
COC(=O)c1cccc(Nc2nc(N)c(C(=O)c3ccccc3)s2)c1 [Compound 2-34, 3-(4-Amino-5-benzoyl-thiazol-2-ylamino)-benzoic acid methyl ester]	–	–	–	–	–	IC50 [1, 12]: < 10 µM; inhibition in vivo at 100 mg/kg [2, 16]: < 20%; IC50 [4, 14]: < 10 µM
N#Cc1c(NC2CC2)sc(C(=O)c2cc(-c3ccccc3)no2)c1N [Compound 1-186, 4-Amino-2-cyclopropylamino-5-(3-phenyl-isoxazole-5-carbonyl)-thiophene-3-carbonitrile]	> 10 µM	< 20%	< 10 µM	< 10 µM	< 10 µM	–
COc1ccc(C(=O)c2sc(Nc3ccc(Cl)cc3)c(C#N)c2N)cc1 [Compound 1-36, 4-Amino-2-(4-chloro-phenylamino)-5-(4-methoxy-benzoyl)-thiophene-3-carbonitrile]	< 10 µM	–	< 10 µM	< 10 µM	< 10 µM	inhibition in vivo at 100 mg/kg [2, 11]: < 20%
Nc1nc(NC2CCCC2)sc1C(=O)c1cc(-c2ccccc2)no1 [Compound 2-9, (4-Amino-2-cyclopentylamino-thiazol-5-yl)-(3-phenyl-isoxazol-5-yl)-methanone]	–	–	–	–	–	IC50 [1, 15]: < 10 µM; inhibition in vivo at 100 mg/kg [2, 16]: > 20%; IC50 ([3]; first part of Table 2B (2-1 to 2-22), read-out: IC 50 vs. indicated assay PDE4B2): < 10 µM; IC50 [4, 17]: < 10 µM; IC50 ([5]; first part of Table 2B (2-1 to 2-22), read-out: IC 50 vs. indicated assay PDE4D5): < 10 µM
CCOC(=O)c1ccc(Nc2nc(N)c(C(=O)c3ccccc3)s2)cc1 [Compound 2-33, 4-(4-Amino-5-benzoyl-thiazol-2-ylamino)-benzoic acid ethyl ester]	–	–	–	–	–	IC50 [1, 12]: > 10 µM; inhibition in vivo at 100 mg/kg [2, 16]: > 20%; IC50 [4, 14]: < 10 µM
COc1ccc(C(=O)c2sc(Nc3c(Cl)cccc3Cl)nc2N)cc1 [Compound 2-41, [4-Amino-2-(2,6-dichloro-phenylamino)-thiazol-5-yl]-(4-methoxy-phenyl)-methanone]	–	–	–	–	–	IC50 [1, 12]: < 10 µM; inhibition in vivo at 100 mg/kg [2, 16]: < 20%; IC50 [4, 14]: < 10 µM
CSc1ccc(Nc2sc(C(=O)c3ccccc3)c(N)c2C#N)cc1 [Compound 1-167, 4-Amino-5-benzoyl-2-(4-methylsulfanyl-phenylamino)-thiophene-3-carbonitrile]	< 10 µM	< 20%	–	< 10 µM	–	–
COc1ccc(C(=O)c2sc(Nc3cccc(SC)c3)c(C#N)c2N)cc1 [Compound 1-177, 4-Amino-5-(4-methoxy-benzoyl)-2-(3-methylsulfanyl-phenylamino)-thiophene-3-carbonitrile]	< 10 µM	< 20%	–	< 10 µM	–	–
COc1ccc(C(=O)c2sc(Nc3ccc(C(=O)O)cc3)nc2N)cc1 [Compound 2-40, 4-[4-Amino-5-(4-methoxy-benzoyl)-thiazol-2-ylamino]-benzoic acid]	–	–	–	–	–	IC50 [1, 12]: < 10 µM; inhibition in vivo at 100 mg/kg [2, 13]: < 20%; IC50 [4, 14]: < 10 µM
N#Cc1c(NCc2ccccc2)sc(C(=O)c2cc(-c3ccccc3)no2)c1N [Compound 1-193, 4-Amino-2-benzylamino-5-(3-phenyl-isoxazole-5-carbonyl)-thiophene-3-carbonitrile]	–	< 20%	> 10 µM	< 10 µM	> 10 µM	–
